The text below walks through data of patent publication US20240182460A1, “ALLOSTERIC CHROMENONE INHIBITORS OF PHOSPHOINOSITIDE 3-KINASE (PI3K) FOR THE TREATMENT OF DISEASE” (PETRA PHARMA CORPORATION, priority 2022, published 2024).

In one data set the target is T1, PI3Kα H1047R (Homo sapiens, UniProt P42336, H1047R).
T1 construct: The MDA-MB-453 (ATCC-HTB-131) cell line (PI3Kα H1047R); host or cells: MDA-MB-453
Kind of data set: PI3Kα H1047R mutant in vitro cell based assay, MDA-MB-453 cells (AlphaLisa SureFire). To be noted: MDA-MB-453 cell line, 0% FBS, 3 hours treatment. An excerpt: (§1) PI3K-Alpha Kinase (PI3Kα) Activity: Wild-Type PI3Kα, H1047R Mutant PI3Kα, and E545K Mutant PI3Kα In Vitro Cell Based Assays and Determination of IC50 Values for Inhibitors
(§2) The MDA-MB-453 (ATCC-HTB-131) cell line (PI3Kα H1047R) and MCF-7 (ATCC-HTB-22) cell line (PI3Kα E545K), MDA-MB-361 (ATCC-HTB-27) cell line (PI3Kα E545K), and SKBR3 (ATCC-HTB-30) cell line (wild type PI3Kα) were obtained from the American Type Culture Collection (Manassas, VA). MDA-MB-453 cells were maintained in Dulbecco's Modified Eagle Media (DMEM, Gibco 12430) supplemented with 10% Fetal Bovine Serum, heat inactivated (FBS HI, Gibco 10082), 1× non-essential amino acids (NEAA, Gibco 11140), 1 mM sodium pyruvate (Gibco 11360) and 1× Anti-Anti (Gibco 15240). MCF-7 cells were maintained in Minimum Essential Media (MEM) (Gibco 11095) supplemented with 10% Fetal Bovine Serum, heat inactivated (FBS HI, Gibco 10082), 1× non-essential amino acids (NEAA, Gibco 11140), 1 mM sodium pyruvate (Gibco 11360), 1× Anti-Anti (Gibco 15240) and 10 μg/mL human insulin (Sigma I 9278). MDA-MB-361 cells were maintained in Dulbecco's Modified Eagle Media (DMEM, Gibco 12430) supplemented with 20% Fetal Bovine Serum, heat inactivated (FBS HI, Gibco 10082), 1× non-essential amino acids (NEAA, Gibco 11140), 1 mM sodium pyruvate (Gibco 11360) and 1× Anti-Anti (Gibco 15240). SKBR3 cells were maintained in McCoy's 5A (Gibco 16600) supplemented with 10% Fetal Bovine Serum, heat inactivated (FBS HI, Gibco 10082), and 1× Anti-Anti (Gibco 15240). Cultures were maintained in a humidified incubator at 37° C. under 5% CO2/95% air.
(§3) For compound testing in 0% FBS, MDA-MB-453, MCF-7 and SKBR3 cells were seeded at a density of 1.5×10^4, 1.0×10^4, and 1.0×10^4 cells, respectively, per well in white 384-well plates in 20 μl of Minimum Essential Media (MEM) assay media with 1×NEAA, 1 mM sodium pyruvate, and 1 μg/mL human insulin (Sigma 19278) (Assay Medium); while MDA-MB-361 cells were seeded at a density of 1.5×10^4 per well in white 384-well plates in 20 μl Assay Medium without insulin. After plating, cells were allowed to attach overnight. Compounds dissolved in 10 mM stock solutions in DMSO were serially diluted 1:3 in DMSO to generate a 10-point dilution series and plated using an acoustic liquid handler system (Echo 550 Series Liquid Handler, Labcyte). A 5× intermediate compound dilution plate in MEM with 1×NEAA and 1 mM sodium pyruvate (150 μM starting compound concentration in 1.5% DMSO) was then prepared. Five μl of the intermediate serially diluted compounds were added to the cell plate to final concentrations ranging from […] in 0.3% DMSO. 0.3% DMSO alone was used to establish the maximum (MAX) signal and GDC-0032 at a final concentration of 1 μM was used as a reference compound for the minimum (MIN) signal. After 3 hours treatment, the medium was removed, and the cells were lysed in 10 μL of 1× SureFire Lysis buffer with shaking for 10 minutes at room temperature. The Acceptor Mix (Reaction Buffer 1+Reaction Buffer 2+Activation Buffer+SureFire Ultra Acceptor Beads) was prepared by diluting Activation buffer 25-fold in combined Reaction Buffer 1 and Reaction Buffer 2.
(§4) The Acceptor beads were diluted 50-fold in the combined Reaction Buffers. Five μL of Acceptor Mix was added to each well, the plate was sealed and covered with foil and incubated for 1 hour at room temperature. The Donor Mix (dilution buffer+SureFire Ultra Donor Beads) was prepared by diluting Donor Beads 50-fold in dilution buffer. Five μL of the Donor Mix was added to each well and the plate sealed and covered with foil and incubated for 1-2 hours at room temperature in the dark. The plates were read on a Neo2 plate reader instrument from Biotek using standard AlphaLisa settings.
(§5) Compounds were tested in duplicate and the % inhibition at each compound concentration was used to generate two dose response curves. One IC50 was generated using average % inhibition at each compound concentration. […]

Data set [1] addresses T2, PI3Kα E545K (Homo sapiens, UniProt P42336, E545K). Description: PI3Kα E545K mutant in vitro cell based assay, MDA-MB-361 cells. On the set-up: MDA-MB-361 (ATCC-HTB-27) cell line (PI3Kα E545K); host or cells: MDA-MB-361. To be noted: MDA-MB-361 cell line, 0% FBS, no insulin, 3 hours treatment. In outline: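 Compound exposure lasted 3 hours, in duplicate 10-point 1:3 dilutions at 0.3% DMSO final, on overnight-attached MDA-MB-361 cells carrying PI3Kα E545K in insulin-free, 0% FBS MEM. Lysates read by SureFire AlphaLISA. Relative IC50 from 4-parameter logistic fit versus DMSO and 1 μM GDC-0032 controls.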

Data set [2] in a line: Metabolic stability and intrinsic clearance in human liver microsomes (MICS). To be noted: human, microsomes, pH 7.4. The format is in vitro ADME. In outline: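 Parent depletion by LC-MS/MS, run in duplicate, gave in vitro t1/2 from the slope of ln(% remaining) versus time, converted to CLint (μL/min/mg protein). Incubations: 1 μM compound, microsomes at 0.5 mg/mL, pH 7.4 phosphate, 37° C, ±1 mM NADPH, timepoints 0.5, 5, 15, 30, 60 min.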

Data set [3] addresses T2, PI3Kα E545K. Kind of data set: PI3Kα E545K mutant in vitro cell based assay, MCF-7 cells. To be noted: MCF-7 cell line, 0% FBS, 3 hours treatment.
Excerpt: as §1, §2, §3, §4, §5

T2 sequence (P42336 whole entry E545K): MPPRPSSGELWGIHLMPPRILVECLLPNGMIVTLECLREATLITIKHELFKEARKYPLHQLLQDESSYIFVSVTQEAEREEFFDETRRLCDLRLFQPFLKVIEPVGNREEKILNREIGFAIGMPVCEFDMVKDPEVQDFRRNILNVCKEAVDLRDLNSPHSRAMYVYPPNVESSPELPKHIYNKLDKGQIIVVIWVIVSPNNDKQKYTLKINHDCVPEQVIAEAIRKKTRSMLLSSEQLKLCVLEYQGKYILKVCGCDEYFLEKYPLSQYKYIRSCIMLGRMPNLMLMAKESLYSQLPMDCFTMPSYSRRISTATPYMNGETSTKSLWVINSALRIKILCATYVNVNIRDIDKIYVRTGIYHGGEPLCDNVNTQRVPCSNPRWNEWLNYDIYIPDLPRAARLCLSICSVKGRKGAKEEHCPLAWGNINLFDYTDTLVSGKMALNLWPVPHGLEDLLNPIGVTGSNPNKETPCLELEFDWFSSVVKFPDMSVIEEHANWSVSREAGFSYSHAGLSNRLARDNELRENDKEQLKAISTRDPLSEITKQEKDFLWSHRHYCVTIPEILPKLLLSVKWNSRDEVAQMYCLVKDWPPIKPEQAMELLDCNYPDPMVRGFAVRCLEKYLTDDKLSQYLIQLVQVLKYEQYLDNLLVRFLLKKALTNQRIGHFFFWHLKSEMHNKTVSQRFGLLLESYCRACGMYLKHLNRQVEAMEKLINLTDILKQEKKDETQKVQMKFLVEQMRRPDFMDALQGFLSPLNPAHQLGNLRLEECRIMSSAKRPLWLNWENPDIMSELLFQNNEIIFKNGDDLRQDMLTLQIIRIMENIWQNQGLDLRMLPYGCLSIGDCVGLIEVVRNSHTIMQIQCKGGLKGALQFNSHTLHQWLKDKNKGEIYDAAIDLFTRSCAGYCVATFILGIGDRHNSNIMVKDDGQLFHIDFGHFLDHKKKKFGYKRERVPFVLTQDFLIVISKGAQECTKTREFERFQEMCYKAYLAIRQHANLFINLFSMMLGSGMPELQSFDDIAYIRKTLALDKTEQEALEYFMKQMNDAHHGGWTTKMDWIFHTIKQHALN
T2 sequence (P27986 whole entry partner): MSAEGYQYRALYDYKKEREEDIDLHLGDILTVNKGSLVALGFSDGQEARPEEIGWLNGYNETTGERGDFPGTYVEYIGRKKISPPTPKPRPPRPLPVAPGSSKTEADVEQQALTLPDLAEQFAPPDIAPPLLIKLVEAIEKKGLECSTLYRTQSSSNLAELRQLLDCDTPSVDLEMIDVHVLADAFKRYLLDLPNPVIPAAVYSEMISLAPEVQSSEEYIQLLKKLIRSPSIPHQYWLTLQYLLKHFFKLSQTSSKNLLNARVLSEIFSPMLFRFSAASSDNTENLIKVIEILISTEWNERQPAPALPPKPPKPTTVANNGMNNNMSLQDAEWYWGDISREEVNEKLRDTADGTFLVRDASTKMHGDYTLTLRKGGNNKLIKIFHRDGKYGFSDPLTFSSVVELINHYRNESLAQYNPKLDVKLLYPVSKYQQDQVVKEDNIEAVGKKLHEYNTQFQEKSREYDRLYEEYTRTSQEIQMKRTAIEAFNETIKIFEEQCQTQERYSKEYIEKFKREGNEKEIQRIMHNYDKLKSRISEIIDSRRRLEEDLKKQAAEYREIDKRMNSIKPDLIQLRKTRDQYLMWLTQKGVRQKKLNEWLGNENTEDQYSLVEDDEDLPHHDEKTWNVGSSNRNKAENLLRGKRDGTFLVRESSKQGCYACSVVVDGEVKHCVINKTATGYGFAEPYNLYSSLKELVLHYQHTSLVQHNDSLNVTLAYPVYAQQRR
T1 sequence (P42336 whole entry H1047R): as the sequence (P42336 whole entry E545K) above, with K545E, H1047R counted along it
T1 sequence (P27986 whole entry partner): as the sequence (P27986 whole entry partner) above

`Cc1cc([C@@H](C)Oc2ccc(Cl)nc2S(N)(=O)=O)c2oc(-c3cnn(C)n3)c(C)c(=O)c2c1` [Example 35A, 6-Chloro-3-[(1R)-1-[3,6-dimethyl-2-(2-methyltriazol-4-yl)-4-oxo-chromen-8-yl]ethoxy]pyridine-2-sulfonamide]: at PI3Kα H1047R, the IC50 is less than 100 nM. Same read-out and setting: in the case of `Cc1cc([C@@H](C)Oc2ccccc2C(N)=O)c2oc(-c3ccc4nn(C)cc4c3)c(C)c(=O)c2c1` [Example 9A, 2-[(1R)-1-[3,6-Dimethyl-2-(2-methylindazol-5-yl)-4-oxo-chromen-8-yl]ethoxy]benzamide] it was less than 100 nM; in that of `Cc1cc([C@@H](C)Oc2ccc(Cl)nc2S(N)(=O)=O)c2oc(-c3ccc4nn(CCO)cc4c3)c(C)c(=O)c2c1` [Example 88C, 6-Chloro-3-[(1R)-1-[2-[2-(2-hydroxyethyl)indazol-5-yl]-3,6-dimethyl-4-oxo-chromen-8-yl]ethoxy]pyridine-2-sulfonamide], less than 100 nM. Turning to `CCS(=O)(=O)c1ccc(-c2oc3c([C@@H](C)Oc4ccc(Cl)nc4S(N)(=O)=O)cc(C)cc3c(=O)c2C)cc1` [Example 33C, 6-Chloro-3-[(1R)-1-[2-(4-ethylsulfonylphenyl)-3,6-dimethyl-4-oxo-chromen-8-yl]ethoxy]pyridine-2-sulfonamide], on PI3Kα H1047R, the IC50 was less than 100 nM. Regarding `Cc1cc([C@@H](C)Oc2ccc(Cl)nc2-c2noc(=O)[nH]2)c2oc(-c3cnc4ccoc4c3)c(C)c(=O)c2c1` [Example 6C, 3-[6-Chloro-3-[(1R)-1-(2-furo[3,2-b]pyridin-6-yl-3,6-yl)ethoxy]-2-pyridyl]-4H-dimethyl-4-oxo-chromen-8-1,2,4-oxadiazol-5-one], the IC50 at PI3Kα H1047R was less than 100 nM.

Turning to `CONS(=O)(=O)c1nc(Cl)ccc1O[C@H](C)c1cc(C)cc2c(=O)c(C)c(-c3ccccc3)oc12` [Example 32A, 6-Chloro-3-[(1R)-1-(3,6-dimethyl-4-oxo-2-phenyl-chromen-8-yl)ethoxy]-N-methoxy-pyridine-2-sulfonamide], on PI3Kα H1047R, the IC50 was less than 100 nM. `Cc1cc([C@@H](C)Oc2ccc(Cl)nc2S(N)(=O)=O)c2oc(-c3cn[nH]c3)c(C)c(=O)c2c1` [Example 115C, 6-Chloro-3-[(1R)-1-[3,6-dimethyl-4-oxo-2-(1H-pyrazol-4-yl)chromen-8-yl]ethoxy]pyridine-2-sulfonamide]: the IC50 against PI3Kα E545K [1] and against PI3Kα E545K [3] was less than 500 nM each time. The microsomal CLint at 1 μM in data set [2] is less than 50 µL/min/mg.

As for `Cc1cc([C@@H](C)Oc2ccc(Cl)nc2S(N)(=O)=O)c2oc(-c3cnn(CCC(F)F)c3)c(C)c(=O)c2c1` [Example 119C, 6-Chloro-3-[(1R)-1-[2-[1-(3,3-difluoropropyl)pyrazol-4-yl]-3,6-dimethyl-4-oxo-chromen-8-yl]ethoxy]pyridine-2-sulfonamide], the concentration for half-maximal inhibition (IC50) on PI3Kα E545K [1] and against PI3Kα E545K [3] was less than 500 nM each time. The same molecule came in with an intrinsic clearance (microsomal CLint) at 1 μM in data set [2] of less than 50 µL/min/mg. For the molecule `Cc1cc([C@@H](C)Oc2ccc(Cl)nc2-c2noc(=O)[nH]2)c2oc(-c3cnc4c(c3)OCCN4C)c(C)c(=O)c2c1` [Example 49A, 3-[6-Chloro-3-[(1R)-1-[3,6-dimethyl-2-(4-methyl-2,3-dihydropyrido[3,2-b][1,4]oxazin-7-yl)-4-oxo-chromen-8-yl]ethoxy]-2-pyridyl]-4H-1,2,4-oxadiazol-5-lone], at PI3Kα H1047R, the IC50 is less than 100 nM. `CONC(=O)c1nc(Cl)ccc1O[C@H](C)c1cc(C)cc2c(=O)c(C)c(-c3ccc4nn(C)cc4c3)oc12` [Example 26A, 6-Chloro-3-[(1R)-1-[3,6-dimethyl-2-(2-methylindazol-5-yl)-4-oxo-chromen-8-yl]ethoxy]-N-methoxy-pyridine-2-carboxamide]: the concentration for half-maximal inhibition (IC50) on PI3Kα E545K [1] and against PI3Kα E545K [3] was less than 500 nM throughout. In addition, the microsomal CLint at 1 μM in data set [2] was less than 50 µL/min/mg. `Cc1cc([C@@H](C)Oc2ccc(F)c(F)c2S(N)(=O)=O)c2oc(-c3cnn(C)c3)c(C)c(=O)c2c1` [Example 110C, 6-[(1R)-1-[3,6-Dimethyl-2-(1-methylpyrazol-4-yl)-4-oxo-chromen-8-yl]ethoxy]-2,3-difluoro-benzenesulfonamide]: the concentration for half-maximal inhibition (IC50) against PI3Kα E545K [1] and at PI3Kα E545K [3] was less than 500 nM in each case. Moreover, the microsomal CLint at 1 μM in data set [2] was less than 50 µL/min/mg.
